Results reported in EPA's ToxValDB 9.5.
Where “and” joins values, the source holds several entries; their conditions need not be identical. Equal values may be shown once.

Tests used:
Apis mellifera = conditions: acute, mortality
Homo sapiens = conditions: clinical; for NOAEL: M, clinical chemistry; for LEL: no effects
Sus scrofa = conditions: for LEL: subchronic, oral, diet
[1] = chronic, duration: 2 years, oral, diet
[2] = duration: 6 weeks, M/F, Large White x Landrace, clinical chemistry
[3] = subchronic, duration: 13 weeks, oral, diet, M/F, Wistar, hematological
[4] = subchronic, duration: 90 days, oral, diet, M/F, Wistar, hematological
[5] = subchronic, duration: 90 days, oral, diet, M/F, Sprague-Dawley, histopathology: nonneoplastic
[6] = subchronic, duration: 90 days, oral, diet, M/F, no effects

Compound: C[C@@H]1O[C@H](O[C@H]2[C@H](O[C@H]3[C@@H](OC[C@H]4O[C@@H](O[C@@H]([C@H](O)[C@@H](O)CO)[C@H](O)CO)[C@H](O)[C@@H](O)[C@@H]4O[C@@H]4O[C@H](CO[C@H]5OC[C@@H](O)[C@H](O)[C@H]5O)[C@@H](O)[C@H](O)[C@H]4O)OC[C@@H](O)[C@@H]3O)O[C@H](CO)[C@H](O)[C@@H]2O)[C@@H](O)[C@H](O)[C@@H]1O
- LD50 (Rattus norvegicus; acute, oral, mortality): > 5000 mg/kg-day
- LD50 (Apis mellifera; oral, unspecified): > 100 µg/piece

Compound: CN/C(=N\[N+](=O)[O-])NCc1cnc(Cl)s1 [Clothianidin]
- LD50 (Apis mellifera; dermal): 0.0275 µg/piece and 0.0258 µg/piece
- LD50 (Apis mellifera; duration: 48 hours, dermal): 0.0275 µg/piece
- LD50 (Apis mellifera; duration: 48 hours, oral, unspecified): 0.00379 µg/piece
- LD50 (Apis mellifera; oral, unspecified): 0.00379 µg/piece

Compound: [Cl-].[Mn+2].[Mn+2].[OH-].[OH-].[OH-] [Manganese chloride hydroxide (Mn2Cl(OH)3)]
- LEL (Gallus gallus; subchronic, duration: 35 days, oral, diet, no effects): 1920 mg/kg-day

Compound: Cc1cc(OC(C)C)ccc1C(=O)C(C)(C)NC(=O)c1sccc1C [Isofetamid]
- NOAEL (Canidae; chronic, duration: 1 years, Dog Other, body weight): 1.57 mg/kg-day
- NOAEL (Canidae; subchronic, duration: 90 days, oral, Dog Other, body weight): 5.34 mg/kg-day

Compound: O=C1OC2(c3ccccc31)c1cc(I)c([O-])c(I)c1Oc1c2cc(I)c([O-])c1I.[Na+].[Na+] [FD&C Red 3]
- NOAEL (Canidae; chronic, duration: 2 years, oral, diet, M/F, Beagle, clinical chemistry): 10000 mg/kg-day
- NOAEL (Rattus norvegicus; repeat dose other, oral, diet, other): 125 mg/kg-day
- NOAEL (Homo sapiens; duration: 14 days, oral, capsule): 1 mg/kg-day

Compound: [Cl-].[K+] [Potassium chloride]
- LEL (Homo sapiens; duration: 4 weeks, oral, F): 40 mg/kg-day

Compound: [Cl-].[Cu+2].[Cu+2].[OH-].[OH-].[OH-] [Dicopper chloride trihydroxide]
- LEL (Gallus gallus; chronic, duration: 16 weeks, oral, diet, no effects): 390 mg/kg-day
- LEL (Gallus gallus; short-term, duration: 21 days, oral, diet, M/F, food consumption): 600 mg/kg-day
- LEL (Gallus gallus; short-term, duration: 21 days, oral, diet, clinical chemistry): 450 mg/kg-day and 300 mg/kg-day

Compound: CCCCC/C=C/C/C=C/CCCCCCCC(=O)O[C@H](COC(=O)CCCCCCCCCCCCCCC)COP(=O)([O-])OCC[N+](C)(C)C [Lecithin]
- NOAEL (Rattus norvegicus; chronic, duration: 24 weeks, oral, gavage, Wistar, no effects): 3750 mg/kg-day

Compound: [O]=[Ti]=[O] [Titanium dioxide]
- NOAEL (Rattus norvegicus; chronic, duration: 103 weeks, oral, diet, M/F, Fischer 344, no effects): 2250 mg/kg-day

Compound: CCCCCCCCCCCC[N+](C)(C)[O-] [N,N-Dimethyldodecylamine-N-oxide]
- NOAEL (Rattus norvegicus; [1]): 50 mg/kg-day

Compound: CCCCCCCCCC(C)=O [2-Undecanone]
- NOAEL (Rattus norvegicus; subchronic, duration: 90 days, oral, clinical signs): 50 mg/kg-day

Compound: CSCCC(N)C(=O)[O-].O=S(=O)([O-])O.[Zn+2] (stereo not drawn)
- LEL (Gallus gallus; subchronic, duration: 35 days, M, Chicken, no effects): 120 mg/kg-day

Compound: Cl.Cl.[Cu+2].[NH-][C@@H](CCCCN)C(=O)[O-].[NH-][C@@H](CCCCN)C(=O)[O-] [L-Lysine, copper complex]
- NOAEL (Homo sapiens; duration: 12 weeks, oral): 10 mg/day

Compound: C[N+](C)(C)CC(=O)[O-] [Betaine]
- LEL (Sus scrofa; [2]): 10000 mg/kg-day
- LEL (Homo sapiens; duration: 3 months, oral): 4000 mg/day
- LEL (Homo sapiens; duration: 6 months, oral): 4000 mg/day

Compound: SCc1ccco1 [2-Furylmethanethiol]
- NOAEL (Rattus norvegicus; subchronic, duration: 90 days, oral, gavage, M/F, body weight): 3 mg/kg-day

Compound: CC1=C(/C=C/C(C)=C/C=C/C(C)=C/C=C/C=C(C)/C=C/C=C(C)/C=C/C2=C(C)CCCC2(C)C)C(C)(C)CCC1 [beta-Carotene]
- LEL (Homo sapiens; duration: 5 years): ≤ 15 mg/day

Compound: Cc1sc2nc(=O)[nH]c(N)c2c1C [4-Amino-5,6-dimethylthieno(2,3-d)pyrimidin-2(1H)-one]
- NOAEL (Rattus norvegicus; subchronic, duration: 13 weeks, oral, diet, M/F, Sprague-Dawley, no effects): 60 mg/kg-day

Compound: C=C(C)[C@@H]1CC=C(C)CC1 [(S)-Limonene]
- NOAEL (Rattus norvegicus; chronic, duration: 103 weeks, oral, gavage, F, mortality): 215 mg/kg-day

Compound: OC[C@H]1O[C@@H]2O[C@H]3[C@H](O)[C@@H](O)[C@@H](O[C@H]4[C@H](O)[C@@H](O)[C@@H](O[C@H]5[C@H](O)[C@@H](O)[C@@H](O[C@H]6[C@H](O)[C@@H](O)[C@@H](O[C@H]7[C@H](O)[C@@H](O)[C@@H](O[C@H]8[C@H](O)[C@@H](O)[C@@H](O[C@H]1[C@H](O)[C@H]2O)O[C@@H]8CO)O[C@@H]7CO)O[C@@H]6CO)O[C@@H]5CO)O[C@@H]4CO)O[C@@H]3CO [beta-Cyclodextrin]
- NOAEL (Canidae; chronic, duration: 1 years, Dog Other, clinical chemistry): 466 mg/kg-day
- NOAEL (Rattus norvegicus; chronic, duration: 6 months, oral, gavage, Long-Evans, body weight): 600 mg/kg-day
- NOAEL (Rattus norvegicus; chronic, duration: 52 weeks, M/F, Sprague-Dawley, clinical chemistry): 654 mg/kg-day

Compound: CC1=C(S)CCO1 [2-methyl-4,5-dihydrofuran-3-thiol]
- NOAEL (Rattus norvegicus; [3]): 1.4 mg/kg-day
- NOEL (Rattus norvegicus; [4]): 1.4 mg/kg-day

Compound: CC1=C(O)C(=O)CO1 [4-Hydroxy-5-methyl-3-furanone]
- NOAEL (Rattus norvegicus; chronic, duration: 2 years, oral, diet, M/F, Sprague-Dawley, body weight): 200 mg/kg-day

Compound: C=C1CC[C@H]2O[C@]2(C)CC[C@@H]2[C@@H]1CC2(C)C [(-)Carophyllene oxide]
- NOAEL (Rattus norvegicus; [5]): 109 mg/kg-day

Compound: COc1nc(NC(=O)NS(=O)(=O)c2ccccc2C(F)(F)F)nc(C(F)(F)F)n1 [Tritosulfuron]
- NOAEL (Canidae; chronic, duration: 12 months, oral, Dog Other, organ weight): 6 mg/kg-day
- NOAEL (Canidae; subchronic, duration: 90 days, oral, Dog Other): 15 mg/kg-day

Compound: [Cu+2].[O-2] [Cupric oxide]
- NOAEL (Homo sapiens; duration: 12 weeks, oral): 10 mg/day

Compound: O=C1C(c2[nH]c3ccc(S(=O)(=O)[O-])cc3c2O)=Nc2ccc(S(=O)(=O)[O-])cc21.[Na+].[Na+] [C.I. Acid Blue 74]
- NOAEL (Rattus norvegicus; [1]): 500 mg/kg-day
- NOAEL (Rattus norvegicus; chronic, duration: 2 years, oral, diet, growth): 500 mg/kg-day

Compound: OC[C@H]1O[C@H](OC[C@H]2O[C@@H](O)[C@@H](O)[C@@H](O)[C@@H]2O[C@@H]2O[C@H](CO)[C@@H](O)[C@H](O)[C@@H]2O)[C@H](O)[C@@H](O)[C@H]1O [Galactomannan]
- NOEL (Rattus norvegicus; short-term, duration: 28 days, M/F, Sprague-Dawley, clinical chemistry): 230 mg/kg-day

Compound: COc1cc(C=O)ccc1O [4-Hydroxy-3-methoxybenzaldehyde]
- NOAEL (Rattus norvegicus; chronic, duration: 2 years): 1000 mg/kg-day
- NOAEL (Rattus norvegicus; subchronic, duration: 13 weeks, oral, gavage, no effects): 400 mg/kg-day

Compound: CC(C)CC1NC(CC(C)C)SC(CC(C)C)S1 (stereo not drawn) [2,4,6-Triisobutyl-5,6-dihydro-4H-1,3,5-dithiazine]
- NOAEL (Rattus norvegicus; subchronic, duration: 90 days, oral, diet, M, histopathology: nonneoplastic): 9.3 mg/kg-day

Compound: CCCCC(CC)COC(=O)c1ccccc1C(=O)OCC(CC)CCCC (stereo not drawn) [Di(2-ethylhexyl) phthalate]
- NOAEL (Rattus norvegicus; developmental, Sprague-Dawley, development): 5 mg/kg-day

Compound: CC(C=O)=Cc1ccccc1 [2-Methylcinnamic aldehyde]
- NOAEL (Rattus norvegicus; [6]): 220 mg/kg-day

Compound: C[N+](C)(C)CC(=O)O.[Cl-] [Betaine hydrochloride]
- LEL (Sus scrofa; [2]): 10000 mg/kg-day

Compound: CC(C)[C@@H]1CC[C@@H](C)C[C@H]1C(=O)NCCc1ccccn1 (relative stereo)
- NOAEL (Rattus norvegicus; [5]): 5 mg/kg-day

Compound: O=C1CN(/N=C/c2ccc([N+](=O)[O-])o2)C(=O)N1 [Nitrofurantoin]
- LEL (Rattus norvegicus; reproduction developmental, oral, reproduction): 10 mg/kg-day

Compound: CC(=NC#N)N(C)Cc1ccc(Cl)nc1 [Acetamiprid]
- NOAEL (Rattus norvegicus; reproduction developmental, duration: 16 days, oral, gavage, F, other): 2.5 mg/kg-day

Compound: C=C1CCC2(C(C)C)CC12 (stereo not drawn) [Sabinen]
- NOAEL (Rattus norvegicus; subchronic, duration: 90 days, oral, diet, M/F, Sprague-Dawley, hematological): 222 mg/kg-day

Compound: CCCCCCCC/C=C\CCCCCCCCCCCC(=O)O [Erucic acid]
- LOAEL (Gallus gallus; chronic, histopathology: nonneoplastic): 20 mg/kg-day
- NOAEL (Sus scrofa; short-term, duration: 14 days, M/F, Not specified, histopathology: nonneoplastic): 700 mg/kg-day
- NOAEL (Rattus norvegicus; short-term, duration: 7 days, oral, diet, M, Sprague-Dawley, histopathology: nonneoplastic): 700 mg/kg-day

Compound: CC(C)CCCCCCOC(=O)c1ccccc1C(=O)OCCCCCCC(C)C [Diisononyl phthalate]
- NOAEL (Rattus norvegicus; chronic, duration: 2 years, M/F, Fischer 344, histopathology: nonneoplastic): 15 mg/kg-day

Compound: C=C1CC[C@H](O)C/C1=C/C=C1\CCC[C@]2(C)[C@@H]([C@H](C)CCCC(C)(C)O)CC[C@@H]12 [Calcifediol]
- LEL (Gallus gallus; subchronic, duration: 35 days, oral, diet, M/F, no effects): 0.07 mg/kg-day
- LEL (Sus scrofa; duration: 42 days, Not specified, no effects): 0.5 mg/kg-day

Compound: O=C(/C=C/c1ccc(O)c(O)c1)O[C@H](Cc1ccc(O)c(O)c1)C(=O)O [Rosmarinic acid]
- NOAEL (Rattus norvegicus; subchronic, duration: 90 days, oral, gavage, M/F, Sprague-Dawley, no effects): 300 mg/kg-day

Compound: CC(=O)SC1=C(C)OCC1 [2-Methyl-3-thioacetoxy-4,5-dihydrofuran]
- NOAEL (Rattus norvegicus; [3]): 1.4 mg/kg-day
- NOEL (Rattus norvegicus; [4]): 1.4 mg/kg-day

Compound: CCCC(CCC)NC(=O)c1ccc2c(c1)OCO2 [N-(1-Propylbutyl)-1,3-benzodioxole-5-carboxamide]
- NOEL (Rattus norvegicus; chronic, duration: 93 days): 20 mg/kg-day

Compound: OC1OC[C@@H](O)[C@@H](O)[C@H]1O (stereo partly drawn) [D-Ribose]
- NOAEL (Rattus norvegicus; subchronic, duration: 90 days, oral, diet, M/F, Wistar, body weight): 3600 mg/kg-day

Compound: CCCCCC1C(=O)CCC1CC(=O)OC (stereo not drawn) [Methyl dihydrojasmonate]
- NOAEL (Rattus norvegicus; subchronic, duration: 90 days, oral, diet, M/F, Sprague-Dawley, no effects): 100 mg/kg-day

Compound: CC(C)=CCC/C(C)=C/C=C/C(C)=C/C=C/C(C)=C/C=C/C=C(C)/C=C/C=C(C)/C=C/C=C(\C)CCC=C(C)C [all-trans-Lycopene]
- NOAEL (Rattus norvegicus; chronic, duration: 1 years, clinical chemistry): 50 mg/kg-day

Compound: C[C@@H]1O[C@@H](O[C@H]2[C@H](O[C@@H]([C@H](O)[C@@H](O)C=O)[C@H](O)CO)O[C@H](CO)[C@H](O)[C@@H]2O)[C@@H](O)[C@H](O)[C@@H]1O [2'-Fucosyllactose]
- NOAEL (Rattus norvegicus; subchronic, duration: 90 days, oral, gavage, M/F, Wistar, organ weight): 2000 mg/kg-day

Compound: O=Cc1cc2ccccc2o1 [2-Benzofurancarboxaldehyde]
- NOEL (Rattus norvegicus; subchronic, duration: 90 days, oral, diet): 25 mg/kg-day

Compound: CC(=O)c1ccc2ccccc2c1 [2'-Acetonaphthone]
- NOAEL (Rattus norvegicus; subchronic, duration: 90 days): 33 mg/kg-day
- NOAEL (Rattus norvegicus; [6]): 33 mg/kg-day

Compound: CC(C)(C)c1cc(O)ccc1O [tert-Butylhydroquinone]
- NOAEL (Canidae; chronic, duration: 117 weeks, oral, diet, M/F, Beagle, clinical chemistry): 72 mg/kg-day

Compound: Cc1ccc(C(C)CC=O)o1 (stereo not drawn) [3-(5-Methyl-2-furyl)butanal]
- NOAEL (Rattus norvegicus; subchronic, duration: 90 days, oral, diet, M/F, Crj:CD, clinical signs): 5.9 mg/kg-day

Compound: CC1=C(/C=C/C(C)=C/C=C/C(C)=C/C=C/C=C(C)/C=C/C=C(\C)C=O)C(C)(C)CCC1 [Apocarotenal]
- NOAEL (Rattus norvegicus; subchronic, duration: 13 weeks, histopathology: nonneoplastic): 30 mg/kg-day
- LOAEL (Rattus norvegicus; subchronic, duration: 13 weeks, oral, M/F, Sprague-Dawley, histopathology: nonneoplastic): 10 mg/kg-day
